Results on three compounds are retold here after patent US20230201214A1, “LPXC INHIBITOR, FORMULATIONS, AND USES THEREOF” (priority 2020, published 2023).

Values after ≈ are worked out from the molar mass of the structure shown. Where only a bound is given, the exact number is not on record here.

Series [1] relates to N. cyriacigeorgica complex NEQAS 3295. The experiment in a line: Bacterial susceptibility testing (MIC, broth microdilution). The following applies: Nocardia cyriacigeorgica. The format is cell-based. The procedure: (§1) Minimal inhibitory concentrations (MIC) against a variety of gram-negative and gram-positive bacterial strains were determined by the broth microdilution method in accordance with the Clinical and Laboratory Standards Institute (CLSI) guidelines. In brief, organism suspensions were adjusted to a 0.5 McFarland standard to yield a final inoculum between 3×10^5 and 7×10^5 colony-forming units (CFU)/mL. Drug dilutions and inocula were made in sterile, cation adjusted Mueller-Hinton Broth (Beckton Dickinson). An inoculum volume of 100 μL was added to wells containing 100 μL. of broth with 2-fold serial dilutions of drug. All inoculated microdilution trays were incubated in ambient air at 35° C. for 18-24 h. Following incubation, the lowest concentration of the drug that prevented visible growth (OD600 nm<0.05) was recorded as the MIC. Performance of the assay was monitored by the use of laboratory quality-control strains and levofloxacin, a compound with a defined MIC spectrum, in accordance with CLSI guidelines.

Series [2] deals with gram-negative and gram-positive bacterial strains. In words: Bacterial susceptibility testing, whole panel. The format is cell-based. As for the experimental part: as §1
A short description of series [3]: Oral solution formulation excipient screening (solubility estimated by HPLC). In kind it is physicochemical. The text has this:
The solubility of Compound A was estimated by HPLC in multiple potential excipients for a solution formulation (Table 4).

`C[C@H]1COc2c(N3CCN(C)CC3)c(F)cc3c(=O)c(C(=O)O)cn1c23` [Levofloxacin] came in with an MIC in series [1] of 8 µg/mL (≈ 22.1 µM).

`N#CC1CN(C[C@@H](Cc2ncnc(O)c2O)c2ccc(C#Cc3ccc(CN4CCOCC4)cc3)cc2)C1` [Compound A, (S)-1-(3-(5,6-dihydroxypyrimidin-4-yl)-2-(4-((4-(morpholinomethyl)phenyl)ethynyl)phenyl)propyl)azetidine-3-carbonitrile] showed an MIC in series [1] of over 64 µg/mL. Also, the “selectivity for gram-negative bacteria over gram-positive bacteria” value in series [2] (from MIC panel of Table 1) is on record as “high selectivity”. For the same compound, the solubility was 330 µg/mL (≈ 648 µM) in series [3] (Capmul MCM, oil or lipid); 900 µg/mL (≈ 1770 µM) in series [3] (Cremophor RH40, aqueous with cosolvent or surfactant or cyclodextrin); at least 45000 µg/mL in series [3] (HCl solution (pH 0.5), pH 0.5, simulated gastric fluid); 120 µg/mL (≈ 235 µM) in series [3] (Labrafil M 1944, oil or lipid); at least 20000 µg/mL in series [3] (Lactic acid, organic solvent or mixture); 130 µg/mL (≈ 255 µM) in series [3] (Maisine CC, oil or lipid). Further, the solubility is 480 µg/mL (≈ 942 µM) in series [3] (Oleic acid, oil or lipid); 50 µg/mL (≈ 98.1 µM) in series [3] (Peppermint oil, oil or lipid); 850 µg/mL (≈ 1670 µM) in series [3] (Polysorbate 20, aqueous with cosolvent or surfactant or cyclodextrin); 620 µg/mL (≈ 1220 µM) in series [3] (Polysorbate 80, aqueous with cosolvent or surfactant or cyclodextrin); at least 45000 µg/mL in series [3] (Propylene glycol (pH 0.5), pH 0.5, organic solvent or mixture); under 10000 µg/mL in series [3] (Propylene glycol, organic solvent or mixture). Moreover, the solubility was at least 45000 µg/mL in series [3] (SBEβCD (30% w/v), pH 0.5, pH 0.5, aqueous with cosolvent or surfactant or cyclodextrin); under 10000 µg/mL in series [3] (SBEβCD (30% w/v), pH 3, pH 3, aqueous with cosolvent or surfactant or cyclodextrin); 630 µg/mL (≈ 1240 µM) in series [3] (Solutol HS 15, aqueous with cosolvent or surfactant or cyclodextrin); 20 µg/mL (≈ 39.2 µM) in series [3] (Soybean oil, oil or lipid); at least 10000 µg/mL in series [3] (Transcutol (pH 0.5), pH 0.5, organic solvent or mixture); under 10000 µg/mL in series [3] (Transcutol, organic solvent or mixture). Besides, the solubility is under 10000 µg/mL in series [3] (Vitamin E TPGS, aqueous with cosolvent or surfactant or cyclodextrin); under 10000 µg/mL in series [3] (aqueous with cosolvent or surfactant or cyclodextrin, Gelucire 44/14 (surfactant)); under 10000 µg/mL in series [3] (organic solvent or mixture, PEG400 (co-solvent)). In addition, the “solubility in excipients, overall” value in series [3] (most excipients, acidifying the excipients led to higher solubility) is “Low solubility”.

For the compound `C[C@@H](O)[C@H]1C(=O)N2C(C(=O)O)=C(S[C@@H]3CN[C@H](C(=O)N(C)C)C3)[C@H](C)[C@H]12` [Meropenem, reference compound], in series [1], the MIC was over 1 µg/mL. In addition, the “activity against gram-positive bacteria” value in series [2] (various strains of gram-positive bacteria) is reported as “do have activity”.
